Test results reported in patent publication US10857258B2, “Adhesive peptide and use therefor” (SEWON BIOTECHNOLOGY INC., priority 2015, dated 2020).
Entries after “also recorded” stand apart in the source; their conditions may differ. Residues, ends and D or L forms follow the SMILES beside them.

Legend:
osteoblast MC3TC-E1 = assay: Safety in osteoblasts; format: cell-based, Mouse; details: 0.1 μM, 1 μM, 10 μM and 100 μM
Description: The safety of the present peptides was determined using osteoblast MC3TC-E1. Osteoblasts were treated with A7-1 peptide as prepared in Example 1 at the concentration of 0.1 μM, 1 μM, 10 μM and 100 μM. Then the effect of the present peptide on the proliferation (FIG. 8A), viability (FIG. 8B) and differentiation (FIG. 8C) on the cells was examined. For testing the effect on the […], MC3T3-E1 and C2C12 cell lines were treated with BMP (rhBMP2, 10 ng/ml for 3 days) and differentiation medium for bone formation for 6 days to induce differentiation. The results were examined by cell staining. It is observed that the present peptide has no effect on the proliferation rate, viability rate or whether or not the cells are differentiated.

[1] = test system: anchorage dependent cells MC3T3-E1; assay: Comparative experiment with soluble RGDS, CCK-8; format: cell-based, Mouse; details: RGDS 0, 10, 100 and 1000 μM
Description: The present peptide A7-1(10 μM) or A7-1 together with soluble RGDS peptide (0, 10, 100 and 1000 μM) for competition assay were added to anchorage dependent cells MC3T3-E1 in a test tube and incubated for 10 min. Then the cells were transferred to a culture plate and incubated for 10 min in a thermostatic incubator to allow the cells to attach. After 10 min, the medium was removed and the cells were washed 2 times with PBS to remove any unattached cells and a fresh medium without the peptide and CCK-8 (Dojindo) were added to the cells and incubated for 1 hr in a thermostatic incubator. Then the absorbance was measured at 450 nm. The medium mixed with CCK-8 only was used as a blank.

Row | Molecule | effect on differentiation (osteoblast MC3TC-E1) | effect on proliferation rate (osteoblast MC3TC-E1) | effect on viability rate (osteoblast MC3TC-E1) | cell adhesiveness with RGDS in the absence of A7-1 [1]
1 | CC(C)C[C@H](NC(=O)[C@H](CCC(N)=O)NC(=O)[C@@H](N)CCCNC(=N)N)C(=O)N[C@H](C(=O)N[C@H](C(=O)N[C@@H](CCCCN)C(=O)N[C@@H](Cc1ccccc1)C(=O)N[C@@H](CCCNC(=N)N)C(=O)N[C@@H](C)C(=O)N[C@@H](CC(C)C)C(=O)N1CCC[C@H]1C(=O)N[C@@H](CS)C(=O)O)C(C)C)C(C)C [A7-1, RQLVVKFRALPC] (H-RQLVVKFRALPC-OH) | no effect | no effect | no effect | –
2 | RGDS | – | – | – | decreased in a concentration dependent manner; also recorded: significantly reduces the adhesiveness
